The METLIN SMRT retention time set (Domingo-Almenara et al. 2019)

Experiment: gradient 5% acetonitrile 3 min, to 50% in 2 min, to 85% in 15 min, held 3 min, 100 µL/min
Conditions: column: Zorbax Extend-C18 2.1 x 50 mm; eluents: water / acetonitrile, 0.1% formic acid
Procedure, shortened: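 Retention times come from adduct peaks that were picked computationally and then checked by hand. The standards, pure and pooled in mixtures of ~100 molecules, were run on a Zorbax Extend-C18 column (2.1 × 50 mm, 1.8 μm) at 100 μL/min with water and acetonitrile, each with 0.1% formic acid. Detection was by quadrupole time-of-flight mass spectrometry in positive and negative ionization mode, with a dead volume of 40 μL and a dwell volume of 900 μL.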

RP-LC retention time [s]	SMILES
590	Cn1nccc1C(=O)NC1CCCN(c2cc(N3CCCC3)ncn2)C1 (centres undefined)
971	CC(C)(C)c1ccc(NS(=O)(=O)c2ccc(N)cc2)cc1
649	COc1ccc(NC(=O)Nc2c(-c3ccc(F)cc3)nc3ccccn23)cc1
594	COc1ccc(CCS(=O)(=O)NCC(c2cccn2C)N2CCOCC2)cc1 (centres undefined)
875	CCOC(=O)C1CCN([C@H]2CS(=O)(=O)C[C@@H]2S(=O)(=O)c2ccc(C)cc2)CC1
957	COC(=O)c1ccc(Cn2cnc3c(-c4cccc(F)c4)csc3c2=O)o1
681	CCSc1nccc2c1ccn2CC(=O)NCc1ccc(Br)cc1
828	Cc1coc2c(C)c3oc(=O)c(CCC(=O)NCCc4ccc(S(N)(=O)=O)cc4)c(C)c3cc12
731	Cc1cccc(CNC(=O)c2cc3n(n2)CC(C)(C(=O)NC2CCCC2)N(C)C3=O)c1 (centres undefined)
893	COc1cc(OC)cc(C(=O)N2CCC3(CC2)N=C(c2ccc(Cl)cc2)NO3)c1
811	O=C(NCc1ccccc1Cl)C1CC(=O)N(CCc2c[nH]c3ccc(F)cc23)C1 (centres undefined)
880	O=C(CN1C(=O)CCCc2cc(S(=O)(=O)N3CCCCC3)ccc21)NC1CCCCC1
1070	CCCn1cc2c3c(cccc31)CN(C(=O)Nc1cccc(C)c1)CC2
818	COCCOC1CCOC2(CCN(S(=O)(=O)c3cccc(OC)c3)CC2)C1 (centres undefined)
654	O=C(N[C@@H]1CN(c2ncccn2)C[C@H]1CO)C1(c2ccccc2)CC1
612	CC1C(=O)NCCN1C(=O)c1cc(Cl)ccc1Cl (centres undefined)
1020	CCN1C(=O)COc2ccc(-c3nc(NC(=O)c4cc(OC)c(OC)c(OC)c4)sc3C)cc21
817	Cc1ccc(CNC(=O)c2cccc(-c3cnc(N4CCCC4)nc3)c2)o1
891	Cc1ccc(C)c(N2CCN(c3ccnc(SCC(=O)Nc4ccc(F)cc4)n3)CC2)c1
668	CCOc1ccc(CNC(=O)c2c(C)oc3c2C2=NCCN2C=N3)cc1
676	CC(=O)Nc1cccc(NS(=O)(=O)c2ccc3c(c2)OCCCO3)c1

RP-LC retention time [s]	SMILES
1260	Cc1ccc(-c2noc(C3CCCN3S(=O)(=O)c3ccc(C)c(C)c3)n2)cc1 (centres undefined)
1140	Cc1cccc(-c2nc(-c3nnn(-c4ccccc4)c3C)no2)c1
1000	Cn1cccc1-c1noc(C2CCN(S(=O)(=O)c3ccc4c(c3)OCCO4)CC2)n1
730	CCc1cccc(C)c1Nc1c(-c2cccc(O)c2)nc2ncccn12
880	Cc1ccc(NC(=O)N2CCCC2c2cc(C)no2)c(Cl)c1 (centres undefined)
604	O=C1CCCCC(CNC(=O)c2n[nH]c(=O)c3ccccc23)N1 (centres undefined)
1370	Cc1nc(-c2cc(S(=O)(=O)N3CCN(c4cccc(C)c4C)CC3)c(C)s2)cs1
790	Cc1ccc(C)c(NC(=O)C2CCN(S(=O)(=O)c3cc(C(=O)N(C)C)cs3)CC2)c1
759	COc1nccnc1N1CCC(NS(=O)(=O)c2ccc(C)cc2)C1 (centres undefined)
815	Cc1ccn(-c2ccc(C(=O)NC3CCCC3)cn2)n1
664	CCn1c(C(=O)NCCN2CCCCCC2)c(N2CCCC2=O)c2cc(F)ccc21
960	COc1cccc(CNC(=O)c2nnc(-c3ccc(S(=O)(=O)N4CCCCC4)cc3)o2)c1
576	CS(=O)(=O)N1CCN(CCNC(=O)Nc2cccc(C(F)(F)F)c2)CC1
827	CCC(=O)N1CCCC(c2ccnc(Nc3ccc(C)cc3)n2)C1 (centres undefined)
679	Cc1cccn2cc(C(=O)NCc3ccc4c(c3)OCO4)nc12
621	FC1(F)CN[C@H](c2nc(-c3cccnc3)no2)C1
902	O=C(CCc1nc(N2CCCCC2)c2c(-c3ccc(F)cc3)noc2n1)N1CCOCC1
565	O=C(Cn1c(CO)nc2ccccc21)N1CCCC1
874	COc1ccc(-c2noc(-c3nn(-c4cccc(F)c4)ccc3=O)n2)cc1
833	Fc1ccc(C(OCCCc2cnc[nH]2)c2ccc(F)cc2)cc1

Second part, the compound before the results:

SMILES	RP-LC retention time [s]
CCN1CCN(c2cc(C(=O)O)c3cc(NS(=O)(=O)c4cc(F)ccc4C)ccc3n2)CC1	607
Cc1nc(C(N)=O)nc2ccccc12	657
Cc1ccccc1-c1nc(-c2ccc(S(=O)(=O)N3CCOCC3)cc2)no1	1170
CCCN1C(=O)COc2ccc(-c3noc(-c4n[nH]c5c4CCCC5)n3)cc21	1000
CCc1ccccc1NC(=O)c1sc(-c2cn(C)c3ncccc23)nc1C	971
CCOc1cccc(-c2noc(Cn3ncn4nc(-c5ccc(F)cc5)cc4c3=O)n2)c1	860
Cn1ccc(C(=O)Nc2ccc(Cl)cc2C(=O)c2ccccc2)n1	1010
CCn1ccc2sc(C)c(C(=O)N3CCN(c4ccc(OC)cc4)CC3)c2c1=O	714
O=C(Cn1ccc2ccn(Cc3ccccc3F)c2c1=O)NCc1ccc2c(c1)OCO2	894
O=C(CN1C(=O)c2ccccc2C1=O)Nc1nnc(-c2ccc3c(c2)CCCC3)o1	856
CCN1C(=O)c2cccnc2Sc2cc(NC(=O)c3ccc(C)cc3)ccc21	859
CC1CS(=O)(=O)N(c2ccc(C(=O)NCCc3c[nH]c4ccccc34)cc2)C1=O (centres undefined)	780
COC[C@@H]1CN(C(=O)c2cc(Cl)ccc2F)C[C@H]1C(N)=O	611
CCCCc1ccc(Nc2c(C(=O)N3CCSCC3)cnc3nc(C)ccc23)cc1	723
CCOc1ccccc1CNC(=O)c1c(C)sc2ccn(CC)c(=O)c12	893
COc1ccc2c(c1)C1(CCN(C(=O)Cc3ccc(C)cc3)C1)C(=O)N2 (centres undefined)	757
CCCn1cc(S(=O)(=O)Nc2cccc(CC)c2)c2cccnc21	943
Cc1cccc(S(=O)(=O)N2CCC(OCc3nc(C)no3)CC2)c1	886
O=C(NCc1ccsc1)C(=O)Nc1cccnc1	566
CCc1cc(C(=O)Nc2cccc(F)c2)nc2ccnn12	998
Cc1ccc(S(=O)(=O)N2CCC3(CC2)NCCN=C3NCc2ccccc2Cl)cc1C	768
Cc1ccc(NC(=O)C2CCCN(S(=O)(=O)c3c[nH]c(C(=O)N4CCCC4)c3)C2)cc1F (centres undefined)	859
O=S1(=O)C[C@H](N2CCN(c3ncccn3)CC2)[C@@H](S(=O)(=O)c2ccc(F)cc2)C1	772
Cc1oc(-c2ccccc2)nc1Cc1noc(Cc2c[nH]c3ccccc23)n1	1010

SMILES	RP-LC retention time [s]
CC(C)NC(=O)C1(C)CC(c2ccccc2)=NO1 (centres undefined)	799
CN(CC1CCOCC1)C(=O)Nc1ccc2c(c1)OCCO2	670
Cc1cc(Nc2ccccc2)nc(N2CCN(C(=O)Nc3ccc(F)cc3)CC2)n1	696
Fc1ccc(Cc2nc3nccc(-c4cccs4)n3n2)cc1	915
Cc1ccc(NC(=O)N(C)CCc2noc(COc3ccccc3)n2)cc1	892
O=C(Cn1ccn2nc(-c3ccc(F)cc3)c(CO)c2c1=O)Nc1ccc(F)cc1F	821
CCCCN(C)C(=O)Cn1nc2c3cc(-c4cc(C)ccc4C)nn3ccn2c1=O	973
O=C(CCc1nc(CSc2nnc(-c3ccccc3)o2)no1)Nc1ccccc1	863
COc1ccc(NC(=O)CN2C(=O)C(C)(C)c3ccccc32)cc1OC	778
CCc1ccccc1NC(=O)N1CCc2nc(-c3ccccc3)ncc2C1	924
COc1ccc(-c2nc3cnccn3c2Nc2ccc(C)cc2C)cc1OC	871
COc1ccc(-c2nnc(-c3cc(S(=O)(=O)N(C)C)ccc3Cl)o2)cc1	970
CN1C(=O)CCc2cc(NC(=O)Cc3c(F)cccc3Cl)ccc21	784
CC1CN(C(=O)Cn2cc(SCC(=O)NCC3CCCO3)c3ccccc32)CC(C)O1 (centres undefined)	723
Cc1cccc(S(=O)(=O)N2CCN(c3nc4ccncc4n(CC(C)C)c3=O)CC2)c1	778
CCS(=O)(=O)c1nc2ccc(NS(=O)(=O)c3cccc(F)c3)cc2s1	851
COc1cccc(CCC(=O)Nc2cnn(-c3ncc(N4CCCC4)cn3)c2)c1	829
COc1ccccc1CNC(=O)Cn1ccc2ccc(N3CCOCC3)nc21	858
O=C(CCCN1C(=O)c2cccc3cccc(c23)C1=O)N1CCN(c2ncccn2)CC1	723
CCc1ccc(-n2c(CN3CCN(C(=O)NCC4CCCO4)CC3)nc3cccnc32)cc1 (centres undefined)	636
Cc1nc(CC(=O)NC(C)c2ccc(F)cc2)sc1C(=O)NC1CC1 (centres undefined)	683
C=C1C(=O)O[C@@H]2[C@H]3O[C@]3(C)CC/C=C(/C)CC[C@@H]12	972
COc1ccc(NC(=O)Cn2nc(N3CCOCC3)c3ccccc3c2=O)c(OC)c1	766
CCCn1c(=O)sc2cc(S(=O)(=O)N3CCC(C(=O)Nc4ccc(C)cn4)CC3)ccc21	808
